Experimental data reported in US20130059907A1, “WOGONIN-CONTAINING PHARMACEUTICAL COMPOSITION FOR INHIBITING CANCER STEM CELLS GROWTH AND APPLICATION THEREOF” (National Taiwan Normal University, priority 2011, published 2013).

Legend:
A549 cells [1] = assay: MTT assay (cell proliferation), A549; assay type: cell-based; details: FIG. 1B
Description: NSCLC cell lines A549, NCI-H460, NCI-H520 and normal lung cell line MRCS were obtained from Bioresource Collection and Research Center (BCRC, Taiwan). A549 cell line was cultured with F12K medium (21127, GIBCO, Carlsbad, U.S.A.). Both NCI-H460 and NCI-H520 cell lines were cultured with RPMI1640 medium (23400, GIBCO, Carlsbad, U.S.A.). MRCS cell line was cultured with MEM medium (41500, GIBCO, Carlsbad, U.S.A.). All media mentioned above contained 10% FBS (10437, GIBCO, Carlsbad, U.S.A.). All cultures were maintained in an incubator (Thermo forma 370, Waltham, U.S.A.) with 5% CO2 at 37° C.
Cells were seeded at 1×10^4 cells per well in a 24-well plate for 16 hours. After that, a sample such as the wogonin solutions with different concentrations and the extract of S. baicalensis (denoted as “SB”) was added into 24-well plate directly, and cultured at 37° C. for 24, 48, and 72 hours, respectively.
Thiazolyl blue tetrazolium bromide (MTT, m5655, Sigma, St. Louis, U.S.A.) solution was prepared in a concentration of 5.5 mg/ml with phosphate buffered saline (PBS) filtered by 0.22 μm membrane. The MTT solution (50 μl) was added to the wells of 24-well plates with A549, NCI-H460, NCI-H520, and MRCS cell lines cultured after 24, 48, and 72 hours. The plates were incubated at 37° C. for 2 hours and then moved out. The media of the wells were removed. […]

A549 cells [2] = assay: Side population analysis (Hoechst33342, with or without reserpine); assay type: cell-based; details: A549, dose of IC50, 48 hours, FIGS. 5A and 5B
Description: A549 cells were seeded in the number of about 3×10^5 in 10 cm dish to give adequate number of cells for analysis. The cells were treated with the extract of S. baicalensis and the wogonin solution in the dose of IC50 for 48 hours. Then, the treated cells were harvested by typsinization and centrifugation. The harvested cells were re-suspended in the number of 1×10^6 cells/ml in culture medium containing 2% FBS, Hoechst33342 dye (5 μg/ml, Invitrogen, Carlsbad, U.S.A.) was added with or without reserpine (50 μM, Sigma, St. Louis, U.S.A.) as a blocking reagent. The cells were further incubated at 37° C. for 2 hours under frequently gentle vortex to ensure uniform staining, and then washed with PBS. PI staining (20 ng/ml) was used to determine the live/dead cells. In order to set up the fluorescence compensation, single staining and non-staining groups were prepared. The cell samples were filtered with nylon mesh (35 μm) to prevent cell aggregation. PI-positive dead cells were primary excluded to avoid false positive signals. Then, the Hoechst blue and red dot plotting was used to determine the side population. A gate of a side population was defined by the diminishing region of two samples groups, i.e. with or without reserpine. The percentages of the side population were further analyzed by Flowjo software (TreeStar, Ashland, U.S.A.).

IC50 (A549 cells [1]; Homo sapiens, A549, 48 hours, read-out: half maximal inhibitory concentration (IC50)): ~85 µM
SMILES: COc1c(O)cc(O)c2c(=O)cc(-c3ccccc3)oc12 [wogonin solution, wogonin hydrate]
inhibition of A549 cell line (concentration dependence) (A549 cells [1]; A549, 40, 80, 120, and 160 μM, 48 hours): increased as the concentration of the wogonin solution increases | side population (SP) (A549 cells [2]): significantly diminished
